Legend:
[1] = biological target: T1, AXL (Homo sapiens, UniProt P30530); assay: TR-FRET kinase activity assay, AXL; assay type: biochemical; conditions: ATP at Km, 60 minutes
T1 sequence (P30530 26-894): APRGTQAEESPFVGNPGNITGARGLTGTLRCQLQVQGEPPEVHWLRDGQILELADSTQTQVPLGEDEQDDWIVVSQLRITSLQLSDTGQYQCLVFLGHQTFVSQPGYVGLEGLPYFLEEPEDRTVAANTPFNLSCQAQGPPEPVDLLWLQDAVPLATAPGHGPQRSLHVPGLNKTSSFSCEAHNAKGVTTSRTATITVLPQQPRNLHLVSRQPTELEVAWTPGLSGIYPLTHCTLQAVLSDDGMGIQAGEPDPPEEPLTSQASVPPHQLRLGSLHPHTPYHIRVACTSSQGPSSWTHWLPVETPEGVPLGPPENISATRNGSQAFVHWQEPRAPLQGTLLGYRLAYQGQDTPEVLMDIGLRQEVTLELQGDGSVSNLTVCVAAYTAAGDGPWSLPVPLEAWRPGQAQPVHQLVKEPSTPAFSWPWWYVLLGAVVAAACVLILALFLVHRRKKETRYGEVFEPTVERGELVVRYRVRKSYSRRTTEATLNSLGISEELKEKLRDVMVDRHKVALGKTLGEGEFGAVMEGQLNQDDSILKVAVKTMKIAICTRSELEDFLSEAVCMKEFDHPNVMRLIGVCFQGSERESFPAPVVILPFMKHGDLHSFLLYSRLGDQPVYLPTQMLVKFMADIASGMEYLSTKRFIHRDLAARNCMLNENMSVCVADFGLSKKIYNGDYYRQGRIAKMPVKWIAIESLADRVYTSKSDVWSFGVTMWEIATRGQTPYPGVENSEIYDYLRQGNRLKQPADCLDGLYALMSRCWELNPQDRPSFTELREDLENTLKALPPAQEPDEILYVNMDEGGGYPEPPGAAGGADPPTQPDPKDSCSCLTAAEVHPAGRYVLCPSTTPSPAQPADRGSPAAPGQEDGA
Outline: (§1)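 Each kinase phosphorylates a fluorescently labeled peptide on tyrosine in the presence of compound, with ATP at its Km, for 60 min at RT in HEPES pH 7.5 buffer with MgCl2, EGTA, Brij 35 and DTT. Product is detected by TR-FRET with a Europium-labeled phospho-specific antibody; IC50 values follow.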

[2] = biological target: T2, MERTK (Homo sapiens, UniProt Q12866); assay: TR-FRET kinase activity assay, MERTK; assay type: biochemical; conditions: for IC50: TR-FRET activity assay, ATP at Km, 60 minutes, read-out: Mer IC50; for Mer/Flt3 ratio (FLT3 IC50/Mer IC50): ratio calculated as FLT3 IC50/Mer IC50
T2 sequence (Q12866 21-999): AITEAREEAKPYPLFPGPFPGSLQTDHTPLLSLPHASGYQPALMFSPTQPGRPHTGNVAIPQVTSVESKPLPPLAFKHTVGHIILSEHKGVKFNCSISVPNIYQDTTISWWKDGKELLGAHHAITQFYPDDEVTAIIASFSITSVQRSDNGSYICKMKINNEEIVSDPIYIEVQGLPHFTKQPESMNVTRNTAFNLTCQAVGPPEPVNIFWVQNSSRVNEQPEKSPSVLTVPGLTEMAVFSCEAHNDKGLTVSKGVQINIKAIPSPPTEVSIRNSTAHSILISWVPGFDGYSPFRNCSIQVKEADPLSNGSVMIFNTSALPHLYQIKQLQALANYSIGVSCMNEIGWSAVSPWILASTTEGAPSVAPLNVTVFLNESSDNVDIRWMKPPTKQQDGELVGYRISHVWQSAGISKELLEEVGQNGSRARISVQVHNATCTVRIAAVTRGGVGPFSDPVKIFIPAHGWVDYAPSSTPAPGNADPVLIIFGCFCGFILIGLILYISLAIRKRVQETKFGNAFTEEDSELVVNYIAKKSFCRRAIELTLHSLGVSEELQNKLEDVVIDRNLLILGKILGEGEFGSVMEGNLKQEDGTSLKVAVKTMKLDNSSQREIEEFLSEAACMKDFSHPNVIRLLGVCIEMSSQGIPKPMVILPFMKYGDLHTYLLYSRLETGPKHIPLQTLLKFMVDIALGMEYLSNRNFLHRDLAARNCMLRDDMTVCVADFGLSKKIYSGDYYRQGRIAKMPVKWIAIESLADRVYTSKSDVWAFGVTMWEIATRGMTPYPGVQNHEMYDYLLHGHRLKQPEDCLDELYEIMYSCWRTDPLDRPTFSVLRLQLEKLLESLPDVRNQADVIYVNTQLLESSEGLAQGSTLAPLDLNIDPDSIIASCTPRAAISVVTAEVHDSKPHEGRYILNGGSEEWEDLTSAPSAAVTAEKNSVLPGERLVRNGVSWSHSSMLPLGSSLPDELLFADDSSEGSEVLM
Outline: as §1

IC50 [1] [nM]	IC50 [2] [nM]	Mer/Flt3 ratio (FLT3 IC50/Mer IC50) [2]	SMILES
≤ 100	≤ 100	+++ (a ratio of >100)	C[C@@H](CC(F)(F)F)Nc1ncc2c(O[C@H]3C[C@@H](CN4CCOCC4)C3)ncc([C@H]3CC[C@H](O)CC3)c2n1 [Compound 402]
≤ 100	≤ 100	+++ (a ratio of >100)	C[C@@H](CC(F)F)Nc1ncc2c(O[C@H]3C[C@@H](O)C3)ncc([C@H]3CC[C@H](O)CC3)c2n1 [Compound 428]
100 to 1000	≤ 100	++ (a ratio of between 10 and 100)	CC1(Nc2ncc3c(OC4CCOCC4)ncc(-c4cccc(NS(C)(=O)=O)c4)c3n2)CC1 [Compound 404]
≤ 100	≤ 100	+++ (a ratio of >100)	C[C@@H](CC(F)(F)F)Nc1ncc2c(OC3CC(C)(C)N(C)C(C)(C)C3)ncc([C@H]3CC[C@H](O)CC3)c2n1 [Compound 386]
1000 to 10000	≤ 100	+++ (a ratio of >100)	CCC(CC)Nc1ncc2c(=O)n(C3CCNCC3)cc([C@H]3CC[C@H](O)CC3)c2n1 [Compound 120]
100 to 1000	≤ 100	+++ (a ratio of >100)	C[C@@H](CC(F)(F)F)Nc1ncc2c(OC3CCN([C@@H]4CCOC4)CC3)ncc([C@H]3CC[C@H](O)CC3)c2n1 [Compound 378]
100 to 1000	≤ 100	+++ (a ratio of >100)	COCCN1C(C)(C)CC(Oc2ncc([C@H]3CC[C@H](O)CC3)c3nc(N[C@@H](C)CC#N)ncc23)CC1(C)C [Compound 376]
100 to 1000	≤ 100	+++ (a ratio of >100)	C[C@H](CF)Nc1ncc2c(OC3CCOCC3)ncc([C@H]3CC[C@H](O)CC3)c2n1 [Compound 401]
≤ 100	≤ 100	+++ (a ratio of >100)	C[C@@H](CC(F)(F)F)Nc1ncc2c(O[C@H]3C[C@H](CN4CCOCC4)C3)ncc([C@H]3CC[C@H](O)CC3)c2n1 [Compound 420]
1000 to 10000	100 to 1000	++ (a ratio of between 10 and 100)	COC[C@H](C)Nc1ncc2c(OC3CCOCC3)ncc(-c3ccc(F)cc3)c2n1 [Compound 395]
≤ 100	≤ 100	+++ (a ratio of >100)	C[C@@H](CC(F)(F)F)Nc1ncc2c(O[C@H]3C[C@@H](O)C3)ncc([C@H]3CC[C@@](C)(O)CC3)c2n1 [Compound 424]
1000 to 10000	≤ 100	++ (a ratio of between 10 and 100)	COC[C@H](C)Nc1ncc2c(OC3CCOCC3)ncc(C3CCC(F)(F)CC3)c2n1 [Compound 358]
≤ 100	≤ 100	+++ (a ratio of >100)	C[C@@H](CC(F)(F)F)Nc1ncc2c(O[C@H]3C[C@@](C)(O)C3)ncc([C@H]3CC[C@H](O)CC3)c2n1 [Compound 429]
100 to 1000	≤ 100	+++ (a ratio of >100)	C[C@@H](CC(F)(F)F)Nc1ncc2c(O[C@H]3C[C@@H](N4CCOCC4)C3)ncc([C@H]3CC[C@H](O)CC3)c2n1 [Compound 408]
100 to 1000	≤ 100	+++ (a ratio of >100)	C[C@@H](COC(F)F)Nc1ncc2c(O[C@H]3C[C@@H](O)C3)ncc([C@H]3CC[C@H](O)CC3)c2n1 [Compound 407]
1000 to 10000	≤ 100	+++ (a ratio of >100)	COC[C@H](C)Nc1ncc2c(Nc3ccnc(C)c3)ncc([C@H]3CC[C@H](O)CC3)c2n1 [Compound 372]
100 to 1000	≤ 100	+++ (a ratio of >100)	COC[C@H](C)Nc1ncc2c(O[C@H]3C[C@@H](O)C3)ncc([C@H]3CC[C@](C)(O)CC3)c2n1 [Compound 426]
1000 to 10000	≤ 100	+++ (a ratio of >100)	COC[C@H](C)Nc1ncc2c(Nc3ccc(C)nc3)ncc([C@H]3CC[C@H](O)CC3)c2n1 [Compound 374]
100 to 1000	≤ 100	+++ (a ratio of >100)	COC[C@H](C)Nc1ncc2c(O[C@H]3C[C@@H](O)C3)ncc([C@H]3CC[C@@](C)(O)CC3)c2n1 [Compound 427]
1000 to 10000	100 to 1000	++ (a ratio of between 10 and 100)	COC[C@H](C)Nc1ncc2c(OC3CCOCC3)ncc(-c3ccc(S(C)(=O)=O)cc3)c2n1 [Compound 400]
100 to 1000	≤ 100	+++ (a ratio of >100)	COC[C@H](C)Nc1ncc2c(OC3CCOCC3)ncc([C@H]3CC[C@H](O)CC3)c2n1 [Compound 122, (1S,4r)-4-(2-(((S)-1-methoxypropan-2-yl)amino)-5-((tetrahydro-2H-pyran-4-yl)oxy)pyrido[4,3-d]pyrimidin-8-yl)cyclohexan-1-ol]
100 to 1000	≤ 100	+++ (a ratio of >100)	C[C@H](Nc1ncc2c(OC3CCOCC3)ncc([C@H]3CC[C@H](O)CC3)c2n1)C(F)F [Compound 365]
1000 to 10000	≤ 100	+++ (a ratio of >100)	C[C@H](CC(F)(F)F)Nc1ncc2c(O[C@H]3C[C@@H](O)C3)ncc([C@H]3CC[C@H](O)CC3)c2n1 [Compound 406]
100 to 1000	≤ 100	+++ (a ratio of >100)	CC1(Nc2ncc3c(OC4CCOCC4)ncc(-c4cccc(S(=O)(=O)N5CCC5)c4)c3n2)CC1 [Compound 405]
100 to 1000	≤ 100	+++ (a ratio of >100)	COC[C@H](C)Nc1ncc2c(O[C@H]3C[C@H](C(=O)N4CCN(C)CC4)C3)ncc([C@H]3CC[C@H](O)CC3)c2n1 [Compound 419]
100 to 1000	≤ 100	+++ (a ratio of >100)	C[C@@H](Nc1ncc2c(OC3CCOCC3)ncc([C@H]3CC[C@H](O)CC3)c2n1)C(F)F [Compound 394]
1000 to 10000	≤ 100	+++ (a ratio of >100)	COC[C@H](C)Nc1ncc2c(Nc3cccnc3)ncc([C@H]3CC[C@H](O)CC3)c2n1 [Compound 363]

SMILES	IC50 [1] [nM]	IC50 [2] [nM]	Mer/Flt3 ratio (FLT3 IC50/Mer IC50) [2]
C[C@@H](CC(F)(F)F)Nc1ncc2c(O[C@@H]3C[C@H]4CC[C@@H](C3)N4C[C@H]3CCOC3)ncc([C@H]3CC[C@H](O)CC3)c2n1 [Compound 414]	≤ 100	≤ 100	+++ (a ratio of >100)
C[C@@H](CC(F)(F)F)Nc1ncc2c(O[C@@H]3C[C@H]4CC[C@@H](C3)N4C[C@H]3CCCO3)ncc([C@H]3CC[C@H](O)CC3)c2n1 [Compound 412]	≤ 100	≤ 100	+++ (a ratio of >100)

Reference: patent US20200291018A1, “TAM KINASE INHIBITORS” (SYROS PHARMACEUTICALS, INC., priority 2017, published 2020)
